In EP2746402A1, “Method of prognosis of Alzheimers disease and substrates for use therein” (Academisch Medisch Centrum, priority 2013, dated 2014):
Positions of bridges follow the written chain, without caps; N, C: chain ends. Non-standard residues stand in square brackets, D forms with d. Residues, ends and D or L forms follow the SMILES beside them. *: point of attachment. Ileψ(thiazoline)Cys = CC[C@H](C)[C@H](N)C1=N[C@H](C(=O)*)CS1; Sta = CC(C)C[C@H](N)[C@@H](O)CC(=O)O; dOrn = NCCC[C@@H](N)C(=O)O; Isovaleryl = CC(C)CC(=O)*; Cbz = O=C(OCc1ccccc1)*; CH2Cl = ClC*

Legend:
Type in all cases: biochemical
[1] = system: HEK293 cytosolic fractions; experiment: Quenched Aβ peptide (qAβ) degradation assay in HEK293 cytosolic fractions, with and without protease inhibitors; conditions: protease inhibitor added to HEK293 cytosolic fractions prior to qAβ, 30 minutes at 4 °C; inhibitor concentrations 20-200 µM; fluorescence at 37°C
Description: We developed a sensitive Aβ degradation assay by generating a quenched Aβ40 peptide containing a small fluorescein group and a quenching dabcyl group (Reits et al., 2004) flanking the KLVFF sequence present in the middle of the Aβ peptides that is a critical region for aggregation (Fig. 1A) (Tjernberg et al., 1996). A quenched Aβ42 peptide was difficult to synthesize as the peptide was too aggregation-prone during synthesis, preventing efficient labeling with the small fluorophore. […] The qAβ peptides were added to cytoplasmic fractions of mildly lysed HEK293 cells, thereby preventing contamination with extracellular membrane-bound or lysosomal proteases, resulting in an increase in fluorescent signal (Fig. 1B). To identify which proteases play a role in this Aβ clearance machinery, different protease inhibitors were added to the cytosolic fractions prior to adding the qAβ. […]
HEK cells were lysed in 25 µM digitonin (Sigma) in KMH buffer (110 mM KAc, 2 mM MgAc and 20 mM Hepes-KOH, pH 7.2). Human and mouse brain hippocampal tissue was lysed in ± 400 µl (adjusted to the amount of tissue) of homogenization buffer (50 mM Tris/HCl pH 7.5, 250 mM sucrose, 5 mM MgCl2 and freshly added 2 mM ATP, 1 mM DTT and 0.025 % digitonin (Sigma)). Tissue was homogenized on ice in homogenization buffer using a homogenizer. Cell lysates were incubated for 30 minutes on ice and centrifuged for 15 minutes at 14.000 rpm at 4 °C.
HFIP-treated aliquots of Aβ40 were resuspended in DMSO followed by sonication for 10 minutes, immediately before use. 75 ng (340 nM) of quenched Aβ40 was added to 5 µg protein from the cell lysates in KMH buffer (110 mM KAc, 2 mM MgAc and 20 mM Hepes-KOH, pH 7.2) to a total volume of 50 µl. Protease inhibitors (100 µM 1,10-phenanthroline, 200 µM bacitracin, 100 µM E64, 20 µM MG-132, 100 µM puromycin, 100 µM PMSF, 200 µM pepstatin A (all Sigma), 100 µM AAF-CMK, 100 µM amastatin or 50 µM bestatin (Enzo lifesciences AG), 50 µM PAQ-22 (Wako Chemicals), 100 µM Cpp-AAF-pNa (InstruChem), 50 µM PAQ-22 (SopaChem) and 100 µM butabindide (Tocris Bioscience)) were added to the cell lysates and incubated for 30 minutes at 4 °C. Degradation of the peptide was analyzed at 37°C using the FLUOstar OPTIMA (BMG Labtec.).

SH-SY5Y cell lysates = experiment: Degradation of the quenched 12-mer peptide in SH-SY5Y cell lysates
Description: To proof that shorter variants of the substrates of the invention may also be used as a suitable substrate to measure IDE activity, we analyzed the degradation of a substrate having the amino acid sequence HQKLVFFACDBC, which contains the KLVFF region flanked by a quenched and fluorophore. In addition, we examined the effect of bacitracine, the inhibitor for IDE, on the degradation of this 12-mer peptide (see Figure 5), as well as its ability to aggregate and form oligomers.
The 12-mer substrate having the amino acid sequence HQKLVFFACDCB (SEQ ID NO:10) containing a fluorophore and quencher was synthesized as described before (Reits et al., 2004), introducing a fluorescein at the cysteine (position 11) and a quenching dabcyl group at the lysine (position 3). The substrate was sonificated immediately before use and added to 5 µg cell lysate. KMH buffer (110 mM KAc, 2 mM MgAc and 20 mM Hepes-KOH, pH 7.2) was added to a total volume of 50 µl. Degradation of the substrate was analyzed at 37°C using the FLUOstar OPTIMA (BMG Labtec.).

[2] = system: human hippocampal lysates; experiment: Quenched Aβ peptide (qAβ) degradation assay in human hippocampal lysates at different Braak stages; conditions: bacitracin added to hippocampal lysates prior to qAβ; all Braak stages
Description: Since the hippocampus is highly susceptible to Aβ accumulation, we examined whether the ability to degrade Aβ is affected in sporadic (sAD) using human hippocampal tissue of post-mortem brains with varying Braak stages. Included were Braak 0 (control, no AD) and Braak I-VI. When the ability to degrade qAβ was determined for each Braak stage (Fig. 2A, solid bars), a strong decrease in qAβ degradation rate was already observed in Braak stage I (t-test, two-tailed, p=0.03), which further decreased during the progression to Braak stage II (t-test, two-tailed, p=0.01). […] Also oligomerized Aβ was less well degraded with increasing Braak stage (Fig. 2B). AD progression can also be classified by plaque distribution in well defined brain areas giving a particular amyloid score, ranging from O (no plaques) to C. Similar to increasing Braak stages, the rate of qAβ degradation decreased with increasing amyloid score, being significant for hippocampal fractions of brains classified with amyloid score C (t-test, two-tailed, p=0.017) (Fig. 2C). […]
HFIP-treated aliquots of Aβ40 were resuspended in DMSO followed by sonication for 10 minutes, immediately before use. […] Degradation of the peptide was analyzed at 37°C using the FLUOstar OPTIMA (BMG Labtec.).

Compound	effect on qAβ degradation [1]	further results
C[C@H](N)C(=O)N[C@@H](C)C(=O)N[C@@H](Cc1ccccc1)C(=O)CCl [AAF-CMK] (H-Ala-Ala-Phe-CH2Cl)	did not show any effect	–
HQKLVFFACDCB [12-mer peptide]	–	plateau level of fluorescence after aggregation (SH-SY5Y cell lysates; 12-mer peptide incubated at 37°C (3 HR in PBS) before addition to SH-SY5Y cell lysates): lower plateau level; degradation of the 12-mer peptide (SH-SY5Y cell lysates; monomeric form added to SH-SY5Y cell lysates): degradation could be observed
c1cnc2c(c1)ccc1cccnc12 [phenantroline, 1,10-phenanthroline]	significantly decreased	–
CC[C@H](C)[C@H](N)C1=N[C@H](C(=O)N[C@@H](CC(C)C)C(=O)N[C@H](CCC(=O)O)C(=O)N[C@H](C(=O)N[C@H]2CCCCNC(=O)[C@H](CC(N)=O)NC(=O)[C@@H](CC(=O)O)NC(=O)[C@H](Cc3cnc[nH]3)NC(=O)[C@@H](Cc3ccccc3)NC(=O)[C@H]([C@@H](C)CC)NC(=O)[C@@H](CCCN)NC2=O)[C@@H](C)CC)CS1 [bacitracin] ({Ileψ(thiazoline)Cys}-L[dE]IK[dOrn]I[dF]H[dD]N; lactam 4-C)	reduced	effect on degradation of the 12-mer peptide (SH-SY5Y cell lysates; bacitracine added to SH-SY5Y cell lysates, monomeric 12-mer): inhibited; ability to degrade qAβ [2]: strongly reduced
CC(C)C[C@@H](C=O)NC(=O)[C@H](CC(C)C)NC(=O)[C@H](CC(C)C)NC(=O)OCc1ccccc1 [MG132] (Cbz-Leu-Leu-Leu-aldehyde)	did not show any effect	–
CC(C)C[C@H](NC(=O)[C@H]1O[C@@H]1C(=O)O)C(=O)NCCCCN=C(N)N [E64]	did not show any effect	–
CC(C)C[C@H](NC(=O)[C@@H](O)[C@H](N)Cc1ccccc1)C(=O)O [bestatin]	did not show any effect	–
CC(C)C[C@@H](N)[C@H](O)C(=O)N[C@H](C(=O)N[C@H](C(=O)N[C@@H](CC(=O)O)C(=O)O)C(C)C)C(C)C [amasatin]	did not show any effect	–
CC(C)CC(=O)N[C@H](C(=O)N[C@H](C(=O)N[C@@H](CC(C)C)[C@@H](O)CC(=O)N[C@@H](C)C(=O)N[C@@H](CC(C)C)[C@@H](O)CC(=O)O)C(C)C)C(C)C [pepstatin] (Isovaleryl-VV[Sta]A[Sta]-OH)	did not show any effect	–
O=S(=O)(F)Cc1ccccc1 [PMSF]	did not show any effect	–
CCCCNC(=O)[C@@H]1Cc2ccccc2N1C(=O)[C@@H](N)CC [butabindide]	did not show any effect	–
